Test [1] deals with CDK2/cyclin E (Homo sapiens, UniProt P24941). The experiment in a line: Assay of kinase activity (ADP-Glo). Type of test: biochemical. To be noted: kinase inhibitory activity, read-out: CDK2/E1 IC50. An outline of the steps:
(§1)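 Kinase preincubated 10 min with compound in 50 mM Hepes, 10 mM MgCl2, 0.01% Brij35, 2 mM DTT, then substrate/ATP added for 60 min at 25 °C. ADP formed measured by ADP-Glo luminescence; IC50 by nonlinear concentration-response fitting.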

Test [2] addresses CDK4/cyclin D1 (Homo sapiens, UniProt P11802). Put plainly: Assay of kinase activity (ADP-Glo). Type of test: biochemical. To be noted: kinase inhibitory activity. A digest of the protocol:
as §1

Test [3] deals with CDK6/cyclin D3 (Homo sapiens, UniProt Q00534). The experiment in a line: Assay of kinase activity (ADP-Glo). Type of test: biochemical. To be noted: kinase inhibitory activity. An outline of the steps: (§2)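 ADP production quantified by luminescence after 60 min kinase reaction at 25 °C, started with substrate/ATP following 10 min enzyme-compound preincubation. Buffer: 50 mM Hepes, 10 mM MgCl2, 0.01% Brij35, 2 mM DTT. IC50 obtained by nonlinear curve fitting of inhibition data.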

For test [4], the target named is CDK9/cyclin T1 (Homo sapiens, UniProt P50750). Put plainly: Assay of kinase activity (ADP-Glo). To be noted: kinase inhibitory activity. In kind it is biochemical. A digest of the protocol:
as §2

For test [5], the system named is human acute myeloid leukemia MV-4-11 cells. Put plainly: Assay of cell proliferation (CellTiter-Glo). Type of test: cell-based. To be noted: MV4-11, 144 h, 6 days, read-out: MV-4-11 IC50 of cell proliferation inhibitory activity. An outline of the steps:
(§3)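 Cells seeded per line at growth-adapted densities, treated 6 days at 37 °C/5% CO2 with nine 3-fold dilutions (10 µM to 0.1 nM final, 0.5% DMSO). Viability by CellTiter-Glo luminescence; IC50 from four-parameter fit.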

Test [6] relates to human breast cancer HCC1806 cells. The experiment in a line: Assay of cell proliferation (CellTiter-Glo). In kind it is cell-based. To be noted: Homo sapiens, 144 h, 6 days, read-out: HCC1806 IC50 of cell proliferation inhibitory activity. A digest of the protocol:
as §3

The subject of test [7] is human gastric cancer MKN1 cells. The experiment in a line: Assay of cell proliferation (CellTiter-Glo). In kind it is cell-based. To be noted: Homo sapiens, MKN-1, 144 h; MNK1, 6 days; read-out: MKN1 IC50 of cell proliferation inhibitory activity. A digest of the protocol:
as §3

Test [8] deals with Human ovarian cancer OVCAR3 cells. Put plainly: Assay of cell proliferation (CellTiter-Glo). Type of test: cell-based. To be noted: Homo sapiens, OVCAR-3, 144 h, 6 days, read-out: OVCAR3 IC50 of cell proliferation inhibitory activity. An outline of the steps:
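OVCAR3 cells, 2000/well in RPMI 1640 with 20% FBS, treated with nine 3-fold dilutions from 10 µM to 0.1 nM (0.5% DMSO) for 6 days at 37 °C. Viability by CellTiter-Glo luminescence; IC50 by four-parameter fit.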

CDK9/cyclin T1, sequence (P50750 whole entry, species assumed): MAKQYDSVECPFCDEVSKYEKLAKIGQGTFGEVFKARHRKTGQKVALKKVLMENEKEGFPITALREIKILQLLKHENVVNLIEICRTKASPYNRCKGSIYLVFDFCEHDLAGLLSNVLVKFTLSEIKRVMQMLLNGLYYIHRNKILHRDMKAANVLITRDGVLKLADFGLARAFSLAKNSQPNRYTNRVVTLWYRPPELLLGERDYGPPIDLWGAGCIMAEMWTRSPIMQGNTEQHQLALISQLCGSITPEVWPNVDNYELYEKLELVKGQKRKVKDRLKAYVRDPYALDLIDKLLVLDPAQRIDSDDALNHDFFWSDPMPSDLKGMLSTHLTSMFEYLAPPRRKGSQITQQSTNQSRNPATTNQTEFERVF
CDK9/cyclin T1, sequence (O60563 whole entry partner, species assumed): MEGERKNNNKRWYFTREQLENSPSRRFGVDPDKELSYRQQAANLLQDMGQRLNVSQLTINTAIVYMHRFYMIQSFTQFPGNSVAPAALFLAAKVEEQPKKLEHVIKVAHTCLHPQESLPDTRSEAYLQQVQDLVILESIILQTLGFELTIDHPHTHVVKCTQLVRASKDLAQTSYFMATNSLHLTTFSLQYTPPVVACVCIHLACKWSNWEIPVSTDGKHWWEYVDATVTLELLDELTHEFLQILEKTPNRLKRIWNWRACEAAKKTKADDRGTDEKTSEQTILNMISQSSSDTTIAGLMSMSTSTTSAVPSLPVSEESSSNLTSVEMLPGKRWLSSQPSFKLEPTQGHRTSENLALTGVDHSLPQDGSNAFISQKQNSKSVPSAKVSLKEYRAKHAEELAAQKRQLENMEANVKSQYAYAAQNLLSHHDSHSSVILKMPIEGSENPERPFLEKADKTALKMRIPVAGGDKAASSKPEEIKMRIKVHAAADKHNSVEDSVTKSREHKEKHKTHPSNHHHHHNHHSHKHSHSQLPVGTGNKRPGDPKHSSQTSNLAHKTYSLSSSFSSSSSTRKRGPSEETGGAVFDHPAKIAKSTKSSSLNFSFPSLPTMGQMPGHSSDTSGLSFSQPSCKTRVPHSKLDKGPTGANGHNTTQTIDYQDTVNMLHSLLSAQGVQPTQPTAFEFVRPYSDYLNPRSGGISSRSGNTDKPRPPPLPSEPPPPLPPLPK
CDK6/cyclin D3, sequence (Q00534 whole entry, species assumed): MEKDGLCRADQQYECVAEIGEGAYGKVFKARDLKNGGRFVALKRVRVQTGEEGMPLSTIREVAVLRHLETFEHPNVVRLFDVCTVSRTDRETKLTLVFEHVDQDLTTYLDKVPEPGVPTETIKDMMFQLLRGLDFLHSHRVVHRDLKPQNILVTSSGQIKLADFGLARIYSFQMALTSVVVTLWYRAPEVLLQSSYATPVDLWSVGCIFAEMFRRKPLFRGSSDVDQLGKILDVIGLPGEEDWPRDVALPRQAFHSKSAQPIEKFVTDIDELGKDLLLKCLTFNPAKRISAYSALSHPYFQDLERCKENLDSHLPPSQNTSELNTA
CDK6/cyclin D3, sequence (P30281 whole entry partner, species assumed): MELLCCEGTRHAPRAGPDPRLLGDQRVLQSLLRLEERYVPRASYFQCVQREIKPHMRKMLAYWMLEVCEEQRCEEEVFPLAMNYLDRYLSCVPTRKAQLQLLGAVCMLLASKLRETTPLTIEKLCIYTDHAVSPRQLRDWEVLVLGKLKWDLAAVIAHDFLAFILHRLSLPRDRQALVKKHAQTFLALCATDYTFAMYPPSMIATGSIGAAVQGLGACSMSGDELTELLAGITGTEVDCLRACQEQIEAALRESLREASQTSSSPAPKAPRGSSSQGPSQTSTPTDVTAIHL
CDK4/cyclin D1, sequence (P11802 whole entry, species assumed): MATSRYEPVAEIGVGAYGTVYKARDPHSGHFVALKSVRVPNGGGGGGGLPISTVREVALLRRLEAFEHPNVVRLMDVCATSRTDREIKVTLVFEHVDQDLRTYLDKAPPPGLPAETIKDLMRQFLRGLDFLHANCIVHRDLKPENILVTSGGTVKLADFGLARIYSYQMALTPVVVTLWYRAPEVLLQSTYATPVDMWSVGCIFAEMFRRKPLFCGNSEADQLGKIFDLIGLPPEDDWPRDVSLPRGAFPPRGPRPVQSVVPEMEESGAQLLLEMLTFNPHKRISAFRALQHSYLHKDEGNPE
CDK4/cyclin D1, sequence (P24385 whole entry partner, species assumed): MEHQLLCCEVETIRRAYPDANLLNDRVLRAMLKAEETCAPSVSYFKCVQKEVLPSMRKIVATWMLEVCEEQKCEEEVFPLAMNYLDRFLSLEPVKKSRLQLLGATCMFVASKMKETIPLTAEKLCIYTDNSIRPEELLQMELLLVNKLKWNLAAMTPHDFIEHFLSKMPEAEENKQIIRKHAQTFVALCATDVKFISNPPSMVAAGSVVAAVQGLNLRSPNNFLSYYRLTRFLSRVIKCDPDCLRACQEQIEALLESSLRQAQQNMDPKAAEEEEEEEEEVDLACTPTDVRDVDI

Regarding `C[C@@H](n1nnc2ccc3cnc(Nc4ccc(C(=O)N5CCN(C)CC5)cc4)nc3c21)C(C)(C)O` [Example I-57, (R)-(4-((1-(3-Hydroxy-3-methylbutan-2-yl)-1H-[1,2,3]triazolo[4,5-H]quinazolin-8-yl)amino)phenyl)(4-methylpiperazin-1-yl)methanone], the IC50 in test [1] amounted to 0.9 nM; in test [2], 1 nM; in test [3], 4 nM; in test [4] it was 23 nM; in test [5] it was 11 nM; in test [6], 465 nM. For the same molecule, the results for the IC50 in test [7] and in test [8] were 17 nM and 32 nM, respectively.

For the molecule `CC(C)n1nnc2ccc3cnc(Nc4ccc(C(=O)N5CCCNCC5)cc4)nc3c21` [Example I-33, (1,4-Diazepan-1-yl)(4-((1-isopropyl-1H-[1,2,3]triazolo[4,5-H]quinazolin-8-yl)amino)phenyl)metha none], the IC50 is 0.2 nM in test [1]; 1 nM in test [2]; 26 nM in test [3]; 45 nM in test [4]; 2 nM in test [5]; 19 nM in test [6]. The figures for the IC50 in test [7] and in test [8] were 3 nM and 5 nM, respectively.

`CC(C)n1nnc2ccc3cnc(Nc4ccc(C(=O)N5C[C@@H](C)N[C@@H](C)C5)cc4)nc3c21` [Example I-23, ((3R,5S)-3,5-dimethylpiperazin-1-yl)(4-((1-isopropyl-1H-[1,2,3]triazolo[4,5-H]quinazolin-8-yl)amino)phenyl)metha none]: the IC50 in test [1] was found to be 0.4 nM; in test [2], 3 nM; in test [3], 35 nM; in test [4], 24 nM; in test [5] it was 4 nM; in test [6] it was 112 nM. The IC50 in test [7] is 57 nM; in test [8], 73 nM.

For `C[C@@H](n1nnc2ccc3cnc(Nc4ccc(C(=O)N5CC[C@H](N)C5)cc4)nc3c21)C(C)(C)O` [Example I-54, ((S)-3-Aminopyrrolidin-1-yl)(4-((1-((R)-3-hydroxy-3-methylbutan-2-yl)-1H-[1,2,3]triazolo[4,5-h]quinazolin-8-yl)amino)phenyl)methanone], the IC50 amounted to 1 nM in test [1]; 2 nM in test [2]; 16 nM in test [3]; 8 nM in test [4]; 7 nM in test [5]; 268 nM in test [6]. In addition, the IC50 in test [7] worked out at 49 nM; in test [8], 192 nM.

On to `C[C@@H](n1nnc2ccc3cnc(Nc4ccc(C(=O)N5CCCNCC5)cc4)nc3c21)C(C)(C)O` [Example I-60, (R)-(1,4-Diazepan-1-yl)(4-((1-(3-hydroxy-3-methylbutan-2-yl)-1H-[1,2,3]triazolo[4,5-H]quinazolin-8-yl)amino)phenyl)methanone], for which the IC50 in test [1] stood at 0.8 nM; in test [2], 1 nM; in test [3], 3 nM; in test [4], 19 nM; in test [5] it was 12 nM; in test [6], 98 nM. The IC50 came to 41 nM in test [7] and 88 nM in test [8].

Consider `C[C@H](CO)n1nnc2ccc3cnc(Nc4ccc(C(=O)N5CCOCC5)cc4)nc3c21` [Example I-51, (R)-(4-((1-(1-Hydroxypropan-2-yl)-1H-[1,2,3]triazolo[4,5-H]quinazolin-8-yl)amino)phenyl)(morpholino)methanone], for which the IC50 in test [1] was found to be 2 nM; in test [2] it was 7 nM; in test [3], 149 nM; in test [4], 122 nM; in test [5], 51 nM; in test [6] it was 441 nM. For the same molecule, the figures for the IC50 in test [7] and in test [8] were 100 nM and 301 nM, respectively.

`C[C@@H](n1nnc2ccc3cnc(Nc4ccc(C(=O)N5CCNCC5)cc4)nc3c21)C(C)(C)O` [Example I-56, (R)-(4-((1-(3-Hydroxy-3-methylbutan-2-yl)-1H-[1,2,3]triazolo[4,5-H]quinazolin-8-yl)amino)phenyl)(piperazin-1-yl)methanone]: the IC50 in test [1] came out at 0.8 nM; in test [2], 1 nM; in test [3] it was 4 nM; in test [4], 15 nM; in test [5], 11 nM; in test [6] it was 365 nM. Also, the IC50 came out at 81 nM in test [7] and 275 nM in test [8].

In the case of `CC(C)n1nnc2ccc3cnc(Nc4ccc(C(=O)N5CC6CC(C5)N6)cc4)nc3c21` [Example I-24, (3,6-Diazabicyclo[3.1.1]heptan-3-yl)(4-((1-isopropyl-1H-[1,2,3]triazolo[4,5-H]quinazolin-8-yl)amino)phenyl)metha none], the IC50 in test [1] is 0.1 nM; in test [2] it was 1 nM; in test [3] it was 26 nM; in test [4], 8 nM; in test [5] it was 3 nM; in test [6], 44 nM. The IC50 was 6 nM in test [7] and 18 nM in test [8].

Turning to `CN1CCCN(C(=O)c2ccc(Nc3ncc4ccc5nnn([C@@H]6CCC[C@@]6(C)O)c5c4n3)cc2)CC1` [Example I-70, (4-((1-((1,2R)-2-hydroxy-2-methylcyclopentyl)-1H-[1,2,3]triazolo[4,5-H]quinazolin-8-yl)amino)phenyl)(4-methyl-1,4-diazepan-1-yl)methanone], the IC50 in test [1] was determined as 0.06 nM; in test [2], 0.7 nM; in test [3] it was 2 nM; in test [4], 2 nM; in test [5] it was 1 nM; in test [6], 3 nM. In addition, the figures for the IC50 in test [7] and in test [8] were 1 nM and 2 nM, respectively.

With `CC(C)n1nnc2ccc3cnc(Nc4ccc(C(=O)N5CCNC(C)(C)C5)cc4)nc3c21` [Example I-22, (3,3-Dimethylpiperazin-1-yl)(4-((1-isopropyl-1H-[1,2,3]triazolo[4,5-H]quinazolin-8-yl)amino)phenyl)metha none], the IC50 amounted to 2 nM in test [1]; 4 nM in test [2]; 23 nM in test [3]; 4 nM in test [4]; 5 nM in test [5]; 115 nM in test [6]. The IC50 in test [7] was determined as 56 nM; in test [8], 27 nM.

For the molecule `C[C@@]1(O)CCC[C@H]1n1nnc2ccc3cnc(Nc4ccc(C(=O)N5CCNCC5)cc4)nc3c21` [Example I-65], the IC50 in test [1] came to 0.6 nM; in test [2], 0.6 nM; in test [3] it was 3 nM; in test [4], 3 nM; in test [5], 5 nM; in test [6], 111 nM. In addition, the figures for the IC50 in test [7] and in test [8] were 8 nM and 35 nM, respectively.

For `C[C@@]1(O)CCC[C@H]1n1nnc2ccc3cnc(Nc4ccc(C(=O)N5CCCNCC5)cc4)nc3c21` [Example I-69, (1,4-diazepan-1-yl)(4-((1-((1R,2R)-2-hydroxy-2-methylcyclopentyl)-1H-[1,2,3]triazolo[4,5-H]quinazolin-8-yl)amino)phenyl)methanone], the IC50 in test [1] was found to be 0.05 nM; in test [2], 0.5 nM; in test [3] it was 3 nM; in test [4], 2 nM; in test [5], 3 nM; in test [6] it was 20 nM. The IC50 was 6 nM in test [7] and 15 nM in test [8].

In the case of `CC(C)N[C@H]1CCN(C(=O)c2ccc(Nc3ncc4ccc5nnn(C(C)C)c5c4n3)cc2)C1` [Example I-8, (S)-(4-((1-Isopropyl-1H-[1,2,3]triazolo[4,5-H]quinazolin-8-yl)amino)phenyl)(3-(isopropylamino)pyrrolidin-1-yl)methanone], the IC50 in test [1] was found to be 0.1 nM; in test [2], 0.8 nM; in test [3], 19 nM; in test [4], 3 nM; in test [5], 2 nM; in test [6], 16 nM. For the same molecule, the IC50 in test [7] was determined as 4 nM; in test [8], 7 nM.

Regarding `CN(C)[C@H]1CCN(C(=O)c2ccc(Nc3ncc4ccc5nnn([C@@H]6CCC[C@@]6(C)O)c5c4n3)cc2)C1` [Example I-64, ((S)-3-(Dimethylamino)pyrrolidin-1-yl)(4-((1-((1R,2R)-2-hydroxy-2-methylcyclopentyl)-1H-[1,2,3]triazolo[4,5-H]quinazolin-8-yl)amino)phenyl)methanone], the IC50 was 0.1 nM in test [1]; 0.6 nM in test [2]; 4 nM in test [3]; 3 nM in test [4]; 2 nM in test [5]; 12 nM in test [6]. The IC50 is 3 nM in test [7] and 7 nM in test [8].

For the origin of these results see patent publication EP4711369A1, “1H-[1,2,3]TRIAZOLO[4,5-H]QUINAZOLINE COMPOUNDS AS PROTEIN KINASE INHIBITORS” (Chengdu Cynogen Bio-Pharmaceutical Technology Co., Ltd., priority 2023, dated 2024).
